Experimental data from PMC10065284, “Protease inhibition, in vitro antibacterial and IFD/MM-GBSA studies of ciprofloxacin-based acetanilides” (PLOS ONE, 2023).

Molecular target: T1, serine protease
T1 construct: purified serine protease, indigenously isolated from B. subtilis sp
Test: casein hydrolysis assay with purified protease, inhibition kinetics
Type: biochemical, Bacillus subtilis

Question: How did the Ki turn out when `COC(=O)c1cn(C2CC2)c2cc(N3CCN(CC(=O)Nc4ccccc4)CC3)c(F)cc2c1=O` [4a, methyl 1-cyclopropyl-6-fluoro-4-oxo-7-(4-(2-oxo-2-(phenylamino)ethyl)piperazin-1-yl)-1,4-dihydro-quinoline-3-carboxylate] was run?
Answer: 100 nM
